The target in experiment [1] is BRD4 (BD1+BD2) bromodomain (Homo sapiens (Human), UniProt O60885). Put plainly: BRD4 binding inhibition (AlphaScreen, GST-BRD4 vs tetraacetylated histone H4 peptide). The gist of the method:
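GST-BRD4 (BD1+BD2) and biotinylated tetraacetyl-histone H4 peptide, each at 100 nM in HEPES pH 7.4 buffer with BSA and DTT, were combined with compound. Glutathione acceptor and streptavidin donor beads were added, then incubated 30 min at room temperature in the dark. Read-out was AlphaScreen signal.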

Experiment [2] has as its system acute myelogenous leukemia cells (MV-4-11 cells). As to the kind of experiment: Cytotoxicity to acute myelogenous leukemia cells (MV-4-11 cells), CCK-8. Particulars: Homo sapiens, MV4-11, 72 h.
Description: The following experiment was performed to evaluate the cytotoxicity of [1,2,4]triazolo[4,3-a]quinoxaline derivative according to the present invention to acute myelogenous leukemia cells (MV-4-11 cells).
Acute myelogenous leukemia cells (MV-4-11 cells) were distributed in a 96 well plate at the density of 5×10^3 cells/well. The plated cells were treated with the compounds of the present invention dissolved in DMSO at the different concentrations ranging from 0.01 μM to 10 μM. 72 hours later, the activities of the compounds were determined using CCK-8 reagent.
[3] abbreviates: GST-BRD4 (BD1+BD2) / biotinylated acetyl-histone H4 (Lys5,8,12,16) peptide, read-out: IC50, BRD4 binding inhibition.
Setting [4] is: GST-BRD4 (BD1+BD2) vs biotinylated acetyl-histone H4 peptide, AlphaScreen, read-out: BRD4 IC50.
[5] abbreviates: read-out: MV-4-11 Cytotoxicity IC50.
Setting [6] is: read-out: IC50, cytotoxicity against acute myelogenous leukemia cells.

Molecules are shown by their SMILES. Where two headings read alike, the source gives them in different places.

With `COc1cc2c(cc1C)nc(NCCCCNC(=O)OCC(C)C)c1nnc(C)n12` [Example 150, [4-(8-methoxy-1,7-dimethyl-[1,2,4]triazolo[4,3-a]quinoxaline-4-ylamino)-butyl]-carbamic acid isobutylester], the IC50 (in general, the midpoint of a concentration-inhibition curve) in experiment [1] (setting [3]) was at most 50 nM; in experiment [1] (setting [4]) it was 48 nM; in experiment [2] (setting [5]) it was 460 nM.
With `COc1cc2c(cc1C)nc(NCCCCNC(=O)CC(C)C)c1nnc(C)n12` [Example 151, N-[4-(8-methoxy-1,7-dimethyl-[1,2,4]triazolo[4,3-a]quinoxaline-4-ylamino)-butyl]-3-methyl-butyramide], the IC50 in experiment [1] (setting [4]) was determined as 52 nM; in experiment [2] (setting [5]), 380 nM.
For `COc1cc2c(cc1C)nc(NCCCCNC(=O)[C@@H](O)C(C)C)c1nnc(C)n12` [Example 153, 2-(S)-hydroxy-N-[4-(8-methoxy-1,7-dimethyl-[1,2,4]triazolo[4,3-a]quinoxaline-4-ylamino)-butyl]-3-methyl-butyramide], the IC50 in experiment [1] (setting [3]) was at most 50 nM; in experiment [1] (setting [4]) it was 16 nM; in experiment [2] (setting [5]), 460 nM.
For `COc1cc(C)c2nc(NCCCCNC(=O)OC(C)(C)C)c3nnc(C)n3c2c1` [Example 158, [4-(8-methoxy-1,6-dimethyl-[1,2,4]triazolo[4,3-a]quinoxaline-4-ylamino)-butyl]-carbamic acid-tert-butylester], in that order: at most 50 nM, 18 nM and 610 nM.
For `COc1cc(C)c2nc(NCCCCN)c3nnc(C)n3c2c1` [Example 159, N^1-(8-methoxy-1,6-dimethyl-[1,2,4]triazolo[4,3-a]quinoxaline-4-yl)-butane-1,4-diamine ditrifluoroacetic acid], in that order: at most 50 nM, 24 nM and 530 nM.
For the compound `COc1cc(C)c2nc(NCCCCNC(=O)CC(C)C)c3nnc(C)n3c2c1` [Example 160, N-[4-(8-methoxy-1,6-dimethyl-[1,2,4]triazolo[4,3-a]quinoxaline-4-ylamino)-butyl]-3-methyl-butyramide], the IC50 in experiment [1] (setting [3]) was at most 50 nM; in experiment [1] (setting [4]) it was 28 nM; in experiment [2] (setting [6]), at most 200 nM; in experiment [2] (setting [5]), 70 nM.
Turning to `COCCOc1cc2nc(NCCCCNC(=O)OC(C)(C)C)c3nnc(C)n3c2cc1OCCOC` [Example 162, {4-[7,8-bis-(2-methoxy-ethoxy)-1-methyl-[1,2,4]triazolo[4,3-a]quinoxaline-4-ylamino]-butyl}-carbamic acid-tert-butylester], the IC50 in experiment [1] (setting [3]) was at most 50 nM; in experiment [1] (setting [4]), 24 nM; in experiment [2] (setting [5]), 640 nM.
For `COCCOc1cc2nc(NCCCCNC(=O)C(C)(C)C)c3nnc(C)n3c2cc1OCCOC` [Example 164, N-{4-[7,8-bis-(2-methoxy-ethoxy)-1-methyl-[1,2,4]triazolo[4,3-a]quinoxaline-4-ylamino]-butyl}-2,2-dimethyl-propionamide], in that order: at most 50 nM, 37 nM and 570 nM.
On the same counts, the results for `COCCOc1cc2nc(NCCCCNC(=O)NC(C)(C)C)c3nnc(C)n3c2cc1OCCOC` [Example 169, 1-{4-[7,8-bis-(2-methoxy-ethoxy)-1-methyl-[1,2,4]triazolo[4,3-a]quinoxaline-4-ylamino]-butyl}-3-tert-butyl-urea] are at most 50 nM, 41 nM and 860 nM.
For `COCCOc1cc2nc(NCCCCNC(=O)c3ccccc3)c3nnc(C)n3c2cc1OCCOC` [Example 170, N-{4-[7,8-bis-(2-methoxy-ethoxy)-1-methyl-[1,2,4]triazolo[4,3-a]quinoxaline-4-ylamino]-butyl}-benzamide], in that order: at most 50 nM, 38 nM and 530 nM.
Take `COCCOc1cc2nc(NCCCCNC(=O)c3ccc(C)nc3Cl)c3nnc(C)n3c2cc1OCCOC` [Example 172, N-{4-[7,8-bis-(2-methoxy-ethoxy)-1-methyl-[1,2,4]triazolo[4,3-a]quinoxaline-4-ylamino]-butyl}-2-chloro-6-methyl-nicotinamide]: the IC50 is at most 50 nM in experiment [1] (setting [3]), 40 nM in experiment [1] (setting [4]) and 280 nM in experiment [2] (setting [5]).
On the same counts, the results for `CCOc1cc2nc(NCCCCNC(=O)OC(C)(C)C)c3nnc(C)n3c2cc1OCC` [Example 173] are at most 10 nM, 4 nM and 360 nM.
On the same counts, the results for `CCOc1cc2nc(NCCCCNC(=O)OC(C)C)c3nnc(C)n3c2cc1OCC` [Example 175, [4-(7,8-diethoxy-1-methyl-[1,2,4]triazolo[4,3-a]quinoxaline-4-ylamino)-butyl]-carbamic acid isopropylester] are at most 50 nM, 26 nM and 260 nM.
As for `CCOc1cc2nc(NCCCCNC(=O)OCC(C)C)c3nnc(C)n3c2cc1OCC` [Example 176, [4-(7,8-diethoxy-1-methyl-[1,2,4]triazolo[4,3-a]quinoxaline-4-ylamino)-butyl]-carbamic acid isobutylester], the IC50 is at most 10 nM in experiment [1] (setting [3]), 2 nM in experiment [1] (setting [4]), at most 200 nM in experiment [2] (setting [6]) and 110 nM in experiment [2] (setting [5]).
For `CCOc1cc2nc(NCCCCNC(=O)CC(C)C)c3nnc(C)n3c2cc1OCC` [Example 177], in that order: at most 50 nM, 50 nM, at most 200 nM and 110 nM.
Regarding `Cc1nnc2c(NCCCCNC(=O)OC(C)(C)C)nc3cc4c(cc3n12)OCCO4` [Example 178, [4-(1-methyl-8,9-dihydro-7,10-dioxa-2,3,5,11b-tetraaza-cyclopenta[a]anthracene-4-ylamino)-butyl]-carbamic acid-tert-butylester], the IC50 in experiment [1] (setting [3]) is at most 50 nM; in experiment [1] (setting [4]), 17 nM; in experiment [2] (setting [5]), 440 nM.
For `Cc1nnc2c(NCCCCN)nc3cc4c(cc3n12)OCCO4` [Example 179, N^1-(1-methyl-8,9-dihydro-7,10-dioxa-2,3,5,11b-tetraaza-cyclopenta[a]anthracene-4-yl)-butane-1,4-diamine ditrifluoroacetic acid], in that order: at most 50 nM, 35 nM and 640 nM.
For the compound `Cc1nnc2c(NCCCCNC(=O)C(C)(C)C)nc3cc4c(cc3n12)OCCO4` [Example 180, 2,2-dimethyl-N-[4-(1-methyl-8,9-dihydro-7,10-dioxa-2,3,5,11b-tetraaza-cyclopenta[a]anthracene-4-ylamino)-butyl]-propionamide], the IC50 in experiment [1] (setting [3]) is at most 50 nM; in experiment [1] (setting [4]), 17 nM; in experiment [2] (setting [6]), at most 200 nM; in experiment [2] (setting [5]), 190 nM.
As for `Cc1nnc2c(NCCCCNC(=O)[C@@H](O)C(C)C)nc3cc4c(cc3n12)OCCO4` [Example 183, 2-(S)-hydroxy-3-methyl-N-[4-(1-methyl-8,9-dihydro-7,10-dioxa-2,3,5,11b-tetraaza-cyclopenta[a]anthracene-4-ylamino)-butyl]-butyramide], the IC50 in experiment [1] (setting [3]) was at most 50 nM; in experiment [1] (setting [4]), 11 nM; in experiment [2] (setting [5]), 250 nM.

These data come from patent publication US11028090B2 (Dong Wha Pharm. Co., Ltd., priority 2017, dated 2021).
